Test results published in patent publication US20250127168A1, “METHOD FOR PATHOGENS, MICROORGANISMS, AND PARASITES INACTIVATION” (New York Blood Center, Inc., priority 2018, published 2025).

Assays:
Candida albicans = experiment: Fungal inactivation in growth media; format: cell-based; conditions: 250 μM
Description: (§1) Inactivation of blood-borne parasites, Plasmodium falciparum 3D7 and Babesia divergens Rouen, was conducted in fresh human red blood cells for 24 hours at physiological temperature. […] Above six logs inactivation of Candida albicans, a representative of pathogenic fungi, and three logs inactivation of Tetrahymena thermophila, a model organism for ciliated protozoa, were achieved by compound XIV at 250 μM in their respective growth media.

[1] = system: Plasmodium falciparum 3D7; experiment: Inactivation of blood-borne parasites in fresh human red blood cells; format: cell-based; conditions: 250 μM, 24 hours, physiological temperature
Description: as §1

Babesia divergens Rouen = experiment: as above; format: cell-based; conditions: 250 μM, 24 hours, physiological temperature
Description: as §1

S. aureus = experiment: Bacterial inactivation in Ringer's solution, colony agar plate count; format: cell-based; conditions: 100 μM, RT, 1 h treatment
Description: (§2) A panel of G+F and G-bacteria were inactivated in their respective growth medium using compound VI, compound X, and compound XIV. All cells were grown in corresponding media to middle log phase, collected by centrifugation, re-suspended in Ringer's solution (RS), and treated at RT with 100 μM of compound VI, compound X, and compound XIV, which were added to the suspension as 100× concentrate in RS. Controls received RS only. At the end of the incubation, unreacted compound VI, compound X, and compound XIV were neutralized with 10 mM sodium thiophosphate during incubation at RT for 30 min. The viable cells were enumerated using serial dilutions by standard colony agar plate count. Table 1 summarizes the typical results of 1 h treatment of E. coli, P. fluorescens, Y. enterocolitica, B. cereus, S. aureus, and S. epidermidis with compound VI, compound X, and compound XIV.

E. coli = experiment: as above; format: cell-based; conditions: 100 μM, RT, 1 h treatment
Description: as §2

P. fluorescens = experiment: as above; format: cell-based; conditions: 100 μM, RT, 1 h treatment
Description: as §2

Y. enterocolitica = experiment: as above; format: cell-based; conditions: 100 μM, RT, 1 h treatment
Description: as §2

B. cereus = experiment: as above; format: cell-based; conditions: 100 μM, RT, 1 h treatment
Description: as §2

S. epidermidis = experiment: as above; format: cell-based; conditions: 100 μM, RT, 1 h treatment
Description: as §2

[2] = system: Human respiratory syncytial virus (RSV); experiment: Viral inactivation, modified plaque assay; format: cell-based; conditions: 6 h, Ringer's/Lactate solution
Description: Human respiratory syncytial virus (RSV) was inactivated by using Compound VI or Compound X. For that purpose, sucrose gradient-purified virus was treated with 100 μM of Compound VI and Compound X at RT. […] The virus titers were determined using standard 10× serial dilutions in a modified plaque assay. For mock-treated virus no significant changes in RSV infectivity were found even after 6 h incubation at RT (in different experiments, the reduction of titers were in the range of 0.11-0.36 Login PFU/mL).
Inactivation of RSV with different concentrations of Compound XVI at RT and 40° C. was performed as described in Example 9.

[3] = Neutralization of compound X by ethyl 2-mercaptoacetate (LCMS); format: physicochemical; conditions: PBS, RT; for Peak Areas (LCMS): 100 μM X + 10 mM ethyl 2-mercaptoacetate
Description: 100 μM solution of compound X in phosphate buffered saline was incubated at room temperature with 10 mM of ethyl-2-mercaptoacetate, and the change of the concentration of compound X, as well as the formation of the intermediate compound of neutralization (XXI) and the final compound of neutralization XXII was determined by LCMS analysis of the mixture. The reaction scheme of neutralization is presented below. The peak areas of compound X, intermediate neutralization product, Q1 (compound XXI) and final neutralization product, Q2 (compound XXII) are presented in the Table 8 below, and in FIG. 18.

| Compound | Peak Areas (LCMS) ([3]; Time 6 min) | Peak Areas (LCMS) ([3]; Time 14.5 min) | Peak Areas (LCMS) ([3]; Time 23.1 min) | Peak Areas (LCMS) ([3]; Time 31.6 min) | Peak Areas (LCMS) ([3]; Time 40.2 min) | Peak Areas (LCMS) ([3]; Time 48.7 min) | Peak Areas (LCMS) ([3]; Time 57.3 min) | Peak Areas (LCMS) ([3]; Time 65.8 min) | Peak Areas (LCMS) ([3]; Time 74.3 min) | Peak Areas (LCMS) ([3]; Time 82.9 min) | Peak Areas (LCMS) ([3]; Time 91.4 min) | Peak Areas (LCMS) ([3]; Time 100.0 min) | Peak Areas (LCMS) ([3]; Time 108.5 min) | Peak Areas (LCMS) ([3]; Time 117.1 min) | Peak Areas (LCMS) ([3]; Time 125.6 min) | further results |
| --- | --- | --- | --- | --- | --- | --- | --- | --- | --- | --- | --- | --- | --- | --- | --- | --- |
| CN(CCCCN(C)CCCN(C)CCCN1CC1)CCCN(C)CCCN1CC1 [Compound XIV] |  |  |  |  |  |  |  |  |  |  |  |  |  |  |  | inactivation of Candida albicans (Candida albicans): Above six; reduction of the number of viable plasmodium organisms [1]: ≥ 7 logs; reduction of the number of viable babesia (Babesia divergens Rouen): 8 logs; Titer (S. aureus): 5.08 Log10CFU/mL; Titer (E. coli): 3.51 Log10CFU/mL; Titer (P. fluorescens): ≤1.00 Log10CFU/mL; Titer (Y. enterocolitica): 5.04 Log10CFU/mL; Titer (B. cereus): ≤1.00 Log10CFU/mL; Titer (S. epidermidis): 6.32 Log10CFU/mL |
| CN(CCCN1CC1)CCCN1CC1 [Compound XVI, 3-(aziridin-1-yl)-N-(3-(aziridin-1-yl)propyl)-N-methylpropan-1-amine] |  |  |  |  |  |  |  |  |  |  |  |  |  |  |  | RSV Inactivation (difference between TO titer and titer) ([2]; 40° C., 100 μM): >6.48 Log10 PFU/mL; RSV titer ([2]; 40° C., 100 μM): <0.52 Log10 PFU/mL; RSV Inactivation (difference between TO titer and titer) ([2]; 40° C., 250 μM): >6.48 Log10 PFU/mL; RSV titer ([2]; 40° C., 250 μM): <0.52 Log10 PFU/mL; RSV Inactivation (difference between TO titer and titer) ([2]; 40° C., 500 μM): >6.48 Log10 PFU/mL; RSV titer ([2]; 40° C., 500 μM): <0.52 Log10 PFU/mL; RSV Inactivation (difference between TO titer and titer) ([2]; RT, 100 μM): 5.02 Log10 PFU/mL; RSV titer ([2]; RT, 100 μM): 1.98 Log10 PFU/mL; RSV Inactivation (difference between TO titer and titer) ([2]; RT, 250 μM): 5.50 Log10 PFU/mL; RSV titer ([2]; RT, 250 μM): 1.50 Log10 PFU/mL; RSV Inactivation (difference between TO titer and titer) ([2]; RT, 500 μM): >6.48 Log10 PFU/mL; RSV titer ([2]; RT, 500 μM): <0.52 Log10 PFU/mL |
| CCOC(=O)CSCCNCCCN(C)CCCCN(C)CCCN(C)CCCNCCSCC(=O)OCC [XXII] | 48.7 | 131.9 | 214.4 | 280.7 | 349.3 | 397.1 | 424.3 | 479.4 | 489.3 | 498.6 | 513.2 | 527 | 520.5 | 548.8 | 536.5 |  |
| CCOC(=O)CSCCNCCCN(C)CCCN(C)CCCCN(C)CCCN1CC1 [XXI] | 181.6 | 307 | 363.5 | 375.8 | 390.1 | 368.5 | 338.6 | 331.1 | 306.5 | 268.6 | 256 | 227.8 | 202.2 | 195 | 174 | first order rate constant of concentration decrease ([3]; 10 mM ethyl 2-mercaptoacetate): 0.026 min⁻¹ |
